# Reference: patent US12667584B2, “Adenosine analog and its use in regulating the circadian clock” (NATIONAL INSTITUTE OF BIOLOGICAL SCIENCES, BEIJING, priority 2017, dated 2026)
# How the values were obtained:
# CDK9 = biological target: T1, CDK9 (Homo sapiens, UniProt P50750); test: Biotinylated compounds pull-down in U2OS cell lysate, CDK9; type: binding
# T1 construct: Every 10^8 unsynchronized U2OS cells were collected, homogenized into 2 ml lysis buffer; endogenous in cells; host or cells: U2OS
# T1 sequence (P50750 whole entry): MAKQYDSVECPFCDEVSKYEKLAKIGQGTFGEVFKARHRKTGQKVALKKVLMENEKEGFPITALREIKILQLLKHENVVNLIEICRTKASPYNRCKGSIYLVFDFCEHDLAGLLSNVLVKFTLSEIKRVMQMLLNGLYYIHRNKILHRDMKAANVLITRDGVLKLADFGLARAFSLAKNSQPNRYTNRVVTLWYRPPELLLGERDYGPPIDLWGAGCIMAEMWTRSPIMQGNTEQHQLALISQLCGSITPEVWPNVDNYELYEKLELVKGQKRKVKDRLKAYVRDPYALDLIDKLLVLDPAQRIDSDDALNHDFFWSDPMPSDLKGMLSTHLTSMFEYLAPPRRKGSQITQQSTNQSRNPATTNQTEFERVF
# T1 sequence (O60563 whole entry partner): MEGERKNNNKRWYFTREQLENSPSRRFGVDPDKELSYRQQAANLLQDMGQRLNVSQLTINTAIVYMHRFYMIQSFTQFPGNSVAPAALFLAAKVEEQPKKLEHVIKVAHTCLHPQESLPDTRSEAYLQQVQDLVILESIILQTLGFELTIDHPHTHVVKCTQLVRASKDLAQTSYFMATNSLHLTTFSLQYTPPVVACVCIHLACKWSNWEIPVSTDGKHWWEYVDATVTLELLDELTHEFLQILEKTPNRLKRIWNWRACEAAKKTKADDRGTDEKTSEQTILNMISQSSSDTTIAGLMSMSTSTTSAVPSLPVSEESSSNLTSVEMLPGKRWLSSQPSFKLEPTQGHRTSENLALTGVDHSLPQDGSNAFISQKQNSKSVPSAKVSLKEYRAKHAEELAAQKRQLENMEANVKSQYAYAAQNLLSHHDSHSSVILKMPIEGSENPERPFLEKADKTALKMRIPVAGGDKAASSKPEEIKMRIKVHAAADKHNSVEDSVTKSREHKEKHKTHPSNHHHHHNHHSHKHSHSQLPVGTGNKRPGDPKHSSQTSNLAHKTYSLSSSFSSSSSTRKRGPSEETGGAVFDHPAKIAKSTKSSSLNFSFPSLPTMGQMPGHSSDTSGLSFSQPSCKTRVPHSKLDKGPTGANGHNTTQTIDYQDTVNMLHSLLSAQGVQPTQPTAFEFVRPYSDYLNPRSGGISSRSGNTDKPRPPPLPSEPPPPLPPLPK
# Procedure: (§1) Biotinylated Compounds Pull-down, SPR analysis and Immunoprecipitation: The interaction between biotinylated compounds and their target proteins were proceeded as follow. Every 10^8 unsynchronized U2OS cells were collected, homogenized into 2 ml lysis buffer (25 mM MOPS pH7.2, 15 mM EGTA, 15 mM MgCl2, 1 mM DTT, 60 mM β-glycerophosphate, 1 mM Na3VO4, 1 mM NaF, 1 mM phenyl phosphate, Complete Protease Inhibitor Cocktail), and sonicated 6 times for 30 s at 4° C. with a Diagenode bioruptor. After sonication, NP-40 (final 0.5%) was added, incubated 15 min on ice, centrifuged at full speed for 20 min at 4° C. The resultant supernatant was firstly incubated with Pentostatin (final concentration at 5 μg/ml) for 2 h at 4° C. with rotation, and then split into 4 groups. 200 pmol cordycepin, 200 pmol DRB, and DMSO (2 groups, final 0.1%) was added respectively and further incubated for 1 h. […] The eluted protein was analyzed with western blot. The binding affinity of cordycepin against the RUVBL2 protein was measured via SPR technology using a Biacore T200 instrument (GE Healthcare) at room temperature. […] The binding kinetics and binding affinity of cordycepin against the RUVBL2 protein were determined with BIA evaluation software (GE healthcare). […] Immunoprecipitated protein complex was then washed 3 times with IP lysis buffer, boiled and analyzed with western blot. […]
# Ruvbl2 = Ruvbl2 (Homo sapiens, UniProt Q9Y230); test: Biotinylated compounds pull-down in U2OS cell lysate, RUVBL2; type: binding; parameters: Every 10^8 unsynchronized U2OS cells were collected, homogenized into 2 ml lysis buffer; endogenous in cells; host or cells: U2OS; conditions: competed by biotin free compound
# Chain of Ruvbl2 (Q9Y230 whole entry): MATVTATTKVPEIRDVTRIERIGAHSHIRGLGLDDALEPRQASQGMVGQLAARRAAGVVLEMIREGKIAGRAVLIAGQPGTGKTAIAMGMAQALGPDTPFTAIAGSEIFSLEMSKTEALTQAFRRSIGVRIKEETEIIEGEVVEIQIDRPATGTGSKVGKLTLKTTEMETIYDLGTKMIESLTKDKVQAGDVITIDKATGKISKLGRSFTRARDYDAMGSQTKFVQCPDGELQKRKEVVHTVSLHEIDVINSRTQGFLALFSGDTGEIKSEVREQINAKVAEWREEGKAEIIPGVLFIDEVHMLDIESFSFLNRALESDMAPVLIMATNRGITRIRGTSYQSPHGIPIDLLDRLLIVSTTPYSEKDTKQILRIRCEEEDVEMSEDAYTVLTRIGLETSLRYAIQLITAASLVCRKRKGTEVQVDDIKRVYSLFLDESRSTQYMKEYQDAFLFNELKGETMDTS
# Procedure: as §1
smiles,measurement,setting,value
"O=C1N[C@H]2[C@H](CS[C@H]2CCCCC(=O)OC[C@H]2O[C@@H](n3cnc4cc(Cl)c(Cl)cc43)[C@H](O)[C@@H]2O)N1 [biotin-DRB, 5,6-dichloro-1-(5′-O-biotinyl-β-D-ribofuranosyl)-benzimidazole]",pull-down of CDK9,CDK9,successfully isolated
same,pull-down of Ruvbl2,Ruvbl2,can pull-down
